From article PMC3821218 (Structure (London, England : 1993), 2013) come the findings set out here.

Data set [1] has as its target T1, RR468 (Thermotoga maritima, UniProt Q9WYT9, V13P/L14I/I17M/N21V). The settings on record: free RR468*; phosphomimetic; NaF/BeSO4/MgCl2, pH 4.6.
The target in data set [2] is T1, RR468. In words: autophosphorylation from […]acetyl phosphate. Type of data set: biochemical. The settings on record: labelled compound; 5 mM MgCl2, pH 8.0, room temperature, 1 hour.
The data set “crystal structure” deals with the molecule itself. The data set can be described thus: crystal structure.

In general, stoichiometry N refers to the number of molecules, sites or subunits per partner or assembly.

Marks after values point to notes of the source that are not given here.

For the molecule `[F][Be-]([F])[F]` [BeF3^−], the “X-ray crystal structure, 1.80 Å” value at RR468 [1] was “the free forms of HK853* (HKf*) bound to ADP and RR468* (RRf*) bound to BeF3^−”.

Consider `CC(=O)OP(=O)(O)O` [acetyl-phosphate], for which the “autophosphorylation from [32P]acetyl phosphate” value at RR468 [2] is on record as “RR468* autophosphorylates more poorly than RR468 using this method”.

B1: HK853, wild type, cytoplasmic portion (enzyme, Thermotoga maritima)
chain: VENVTESKELERLKRIDRMKTEFIANISHELRTPLTAIKAYAETIYNSLGELDLSTLKEFLEVIIDQSNHLENLLNELLDFSRLERKSLQINREKVDLCDLVESAVNAIKEFASSHNVNVLFESNVPCPVEAYIDPTRIRQVLLNLLNNGVKYSKKDAPDKYVKVILDEKDGGVLIIVEDNGIGIPDHAKDRIFEQFYRVDSSLTYEVPGTGLGLAITKEIVELHGGRIWVESEVGKGSRFFVWIPKDRAGEDNRQDN
As to B1, the “stoichiometry N” value in “crystal structure” was 2.
